Laboratory results reported in ChEMBL document CHEMBL1201862, “PubChem BioAssay data set” (2004).
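These data come from cells grown in 96-well plates and exposed to compound for 48 hours at five concentrations. Here, GI50 denotes the concentration required for 50% inhibition of growth.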 Calls of active or inactive are those of the source. No stated cut-off is given here; in the data, active = GI50 up to about 1.1 µM and inactive = higher.

Legend:
Experiment in all cases: NCI tumour cell line growth inhibition, 48 h
CAKI-1 = tested on: CAKI-1
EKVX = tested on: EKVX
HOP-62 = tested on: HOP-62
HOP-92 = tested on: HOP-92
HT-29 = tested on: HT-29
K562 = tested on: K562
MCF7 = tested on: MCF7
MDA-MB-231 = tested on: MDA-MB-231
MDA-MB-435 = tested on: MDA-MB-435
NCI-H226 = tested on: NCI-H226
NCI-H460 = tested on: NCI-H460
NCI-H522 = tested on: NCI-H522
NCI/ADR-RES = tested on: NCI/ADR-RES
RXF 393 = tested on: RXF 393
SF-268 = tested on: SF-268
SW-620 = tested on: SW-620
U-251 = tested on: U-251
UO-31 = tested on: UO-31
M14 = tested on: M14
OVCAR-4 = tested on: OVCAR-4

Measured: GI50

Nc1nccc(NCC2(CO)CCC2)n1
inactive: CAKI-1 63.4 µM | EKVX > 100 µM | HOP-62 > 100 µM | HOP-92 > 100 µM | HT-29 > 100 µM | K562 > 100 µM | MCF7 68.9 µM | MDA-MB-231 > 100 µM | MDA-MB-435 > 100 µM | NCI-H226 > 100 µM | NCI-H460 > 100 µM | NCI-H522 > 100 µM | NCI/ADR-RES > 100 µM | RXF 393 > 100 µM | SF-268 > 100 µM | SW-620 > 100 µM | U-251 > 100 µM | UO-31 > 100 µM

CC1(C)OC2CN(C(=O)OCc3ccccc3)C(CO)C2O1 (stereo not drawn)
inactive: CAKI-1 > 100 µM | EKVX > 100 µM | HOP-62 > 100 µM | HOP-92 > 100 µM | HT-29 > 100 µM | K562 > 100 µM | M14 > 100 µM | MCF7 > 100 µM | MDA-MB-231 > 100 µM | MDA-MB-435 > 100 µM | NCI-H226 > 100 µM | NCI-H460 > 100 µM | NCI-H522 > 100 µM | NCI/ADR-RES > 100 µM | OVCAR-4 > 100 µM | RXF 393 > 100 µM | SF-268 > 100 µM | SW-620 > 100 µM | U-251 > 100 µM | UO-31 > 100 µM

CC1(C)C=C(/C=N/Nc2ccc(Br)cc2)C(C#N)=C(O)C1(C#N)C#N
inactive: CAKI-1 36.1 µM | EKVX 54.3 µM | HOP-62 63 µM | HOP-92 22.4 µM | HT-29 40.8 µM | K562 17.7 µM | M14 26.6 µM | MCF7 26.5 µM | MDA-MB-231 39.5 µM | MDA-MB-435 39.7 µM | NCI-H226 88.3 µM | NCI-H460 33.1 µM | NCI-H522 75.9 µM | NCI/ADR-RES 45.2 µM | OVCAR-4 40 µM | RXF 393 33.8 µM | SF-268 40.9 µM | SW-620 36.5 µM | UO-31 22.8 µM

NC(=O)C(c1ccccc1)N1OC2C(=O)N(c3ccccc3)C(=O)C2C1c1c2ccccc2c(Cl)c2ccccc12 (stereo not drawn)
inactive: CAKI-1 > 100 µM | EKVX > 100 µM | HOP-62 > 100 µM | HOP-92 > 100 µM | HT-29 > 100 µM | K562 > 100 µM | M14 > 100 µM | MCF7 > 100 µM | MDA-MB-231 > 100 µM | MDA-MB-435 > 100 µM | NCI-H226 > 100 µM | NCI-H522 > 100 µM | NCI/ADR-RES > 100 µM | OVCAR-4 > 100 µM | RXF 393 > 100 µM | SF-268 > 100 µM | SW-620 > 100 µM | U-251 > 100 µM | UO-31 > 100 µM

C/C(=N\N=C(\N)SB(F)F)c1ccc2ccccc2c1
inactive: CAKI-1 > 100 µM | EKVX > 100 µM | HOP-92 > 100 µM | HT-29 > 100 µM | K562 > 100 µM | M14 > 100 µM | MCF7 87.7 µM | MDA-MB-231 > 100 µM | MDA-MB-435 > 100 µM | NCI-H226 > 100 µM | NCI-H460 > 100 µM | NCI-H522 25.6 µM | NCI/ADR-RES > 100 µM | OVCAR-4 > 100 µM | RXF 393 62.8 µM | SF-268 86.5 µM | SW-620 71.8 µM | U-251 > 100 µM | UO-31 > 100 µM

O=S(=O)(O)c1ccc(/N=N/c2ccc(/N=N/c3c(O)ccc4ccccc34)c(S(=O)(=O)O)c2)cc1
inactive: CAKI-1 > 100 µM | EKVX > 100 µM | HOP-62 > 100 µM | HOP-92 > 100 µM | HT-29 > 100 µM | K562 > 100 µM | M14 > 100 µM | MCF7 > 100 µM | MDA-MB-231 > 100 µM | MDA-MB-435 > 100 µM | NCI-H226 > 100 µM | NCI-H460 > 100 µM | NCI-H522 > 100 µM | NCI/ADR-RES > 100 µM | RXF 393 > 100 µM | SF-268 > 100 µM | SW-620 > 100 µM | U-251 > 100 µM | UO-31 > 100 µM

COC(=O)CC(CNC(=O)OCc1ccccc1)OCc1ccc(OC)cc1 (stereo not drawn)
inactive: CAKI-1 > 100 µM | EKVX > 100 µM | HOP-92 > 100 µM | K562 > 100 µM | M14 > 100 µM | MCF7 > 100 µM | MDA-MB-231 > 100 µM | MDA-MB-435 > 100 µM | NCI-H226 66.2 µM | NCI-H460 > 100 µM | NCI-H522 > 100 µM | NCI/ADR-RES > 100 µM | OVCAR-4 88.7 µM | RXF 393 > 100 µM | SW-620 > 100 µM | U-251 > 100 µM | UO-31 50.6 µM

COc1ccc(N2CC(=O)N(C(=O)COc3ccc(OCC(=O)N4C(=O)CN(c5ccc(OC)cc5)C4=S)cc3)C2=S)cc1
inactive: CAKI-1 > 100 µM | EKVX 81.1 µM | HOP-92 > 100 µM | HT-29 57.9 µM | K562 38.8 µM | M14 > 100 µM | MCF7 48.6 µM | MDA-MB-231 > 100 µM | MDA-MB-435 > 100 µM | NCI-H226 > 100 µM | NCI-H460 59.2 µM | NCI-H522 32.6 µM | NCI/ADR-RES > 100 µM | OVCAR-4 > 100 µM | RXF 393 > 100 µM | SF-268 > 100 µM | SW-620 > 100 µM | U-251 > 100 µM | UO-31 > 100 µM

CCOC(=O)[C@@H]1C[C@H]1c1ccc(O)c(O)c1
inactive: CAKI-1 29.7 µM | EKVX > 100 µM | HOP-62 84.9 µM | HOP-92 > 100 µM | HT-29 55.5 µM | K562 10.9 µM | M14 34.8 µM | MCF7 43.9 µM | MDA-MB-231 23.2 µM | MDA-MB-435 10.2 µM | NCI-H226 70.6 µM | NCI-H460 58.2 µM | NCI-H522 16.4 µM | NCI/ADR-RES 43.3 µM | RXF 393 26.6 µM | SF-268 67.6 µM | SW-620 18.6 µM | U-251 69.7 µM | UO-31 31.3 µM

O=C(/C=C/c1ccc(/C=C/C(=O)c2ccc(O)cc2)cc1)c1ccc(O)cc1
inactive: CAKI-1 > 100 µM | EKVX > 100 µM | HOP-62 > 100 µM | HOP-92 > 100 µM | HT-29 58.1 µM | K562 > 100 µM | M14 > 100 µM | MCF7 > 100 µM | MDA-MB-231 > 100 µM | MDA-MB-435 > 100 µM | NCI-H226 > 100 µM | NCI-H460 > 100 µM | NCI-H522 > 10 µM | NCI/ADR-RES > 100 µM | RXF 393 > 100 µM | SF-268 > 100 µM | SW-620 > 100 µM | U-251 16.4 µM | UO-31 > 100 µM
